Results published in patent publication US11261186B2, “Biaryl derivative as GPR120 agonist” (LG CHEM, LTD., priority 2014, dated 2022).

target: T1, hGPR120 (Homo sapiens, UniProt Q5NUL3); assay: Measurement of Activity of GPR120 Agonist (Cell-Based Assay), Calcium 5 dye fluorescence; details: CHO-K1 cells expressing Ga16 and hGPR120
T1 construct: expressed in transfected cells; host or cells: CHO-K1
T1 sequence (Q5NUL3 1-361): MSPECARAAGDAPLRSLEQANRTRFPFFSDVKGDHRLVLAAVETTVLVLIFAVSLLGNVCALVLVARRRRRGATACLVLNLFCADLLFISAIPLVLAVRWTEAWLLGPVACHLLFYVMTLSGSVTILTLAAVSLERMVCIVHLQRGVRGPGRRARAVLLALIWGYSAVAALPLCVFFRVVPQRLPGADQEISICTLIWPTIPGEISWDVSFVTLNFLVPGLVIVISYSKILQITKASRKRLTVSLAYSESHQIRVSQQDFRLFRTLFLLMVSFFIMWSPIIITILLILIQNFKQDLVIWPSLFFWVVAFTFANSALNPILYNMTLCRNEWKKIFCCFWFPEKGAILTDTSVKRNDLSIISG
In short: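 Agonist-evoked calcium signal, expressed as percent relative to DMSO-only wells, read at 485/525 nm after serial-dilution addition (0.5% DMSO final). Cells were hGPR120/Gα16 CHO-K1, seeded 18 h earlier and dye-loaded for 1 h at 37°C.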

Compound | EC50 [µM]
O=C(O)CC1CCN(c2ccc(-c3cccc(OC4CCC4)n3)cc2F)CC1 [Example 320, 2-[1-[4-[6-(cyclobutoxy)-2-pyridyl]-2-fluoro-phenyl]-4-piperidyl]acetic acid] | 0.2 to 2
O=C(O)CC1CN(c2c(F)cc(-c3cccc(OC4CCC4)n3)cc2F)C1 [Example 321, 2-[1-[4-[6-(cyclobutoxy)-2-pyridyl]-2,6-difluoro-phenyl]azetidin-3-yl]acetic acid] | < 0.2
Cc1cc(OC2CCC2)nc(-c2cc(F)c(N3CCC(CC(=O)O)CC3)c(F)c2)n1 [Example 323, 2-[1-[4-[4-(cyclobutoxy)-6-methyl-pyrimidin-2-yl]-2,6-difluoro-phenyl]-4-piperidyl]acetic acid] | 0.2 to 2
CCCCOc1cccc(-c2cc(F)c(N3CCC(CC(=O)O)CC3)c(F)c2)n1 [Example 324, 2-[1-[4-(6-butoxy-2-pyridyl)-2,6-difluoro-phenyl]-4-piperidyl]acetic acid] | 0.2 to 2
Cc1cc(-c2cc(F)c(N3CCC(CC(=O)O)CC3)c(F)c2)nc(OC2CCC2)n1 [Example 325, 2-[1-[4-[2-(cyclobutoxy)-6-methyl-pyrimidin-4-yl]-2,6-difluoro-phenyl]-4-piperidyl]acetic acid] | 0.2 to 2
O=C(O)CC1CCN(c2c(F)cc(-c3csc(OC4CCC4)n3)cc2F)CC1 [Example 326, 2-[1-[4-[2-(cyclobutoxy)thiazol-4-yl]-2,6-difluoro-phenyl]-4-piperidyl]acetic acid] | 0.2 to 2
Cc1cc(OC2CCC2)nc(-c2cc(F)c(N3CCC(CC(=O)O)CC3)c(F)c2)c1 [Example 327, 2-[1-[4-[6-(cyclobutoxy)-4-methyl-2-pyridyl]-2,6-difluoro-phenyl]-4-piperidyl]acetic acid] | 0.2 to 2
Cc1cc(OC2CCC2)nc(-c2cc(F)c(N3CC(CC(=O)O)C3)c(F)c2)n1 [Example 328, 2-[1-[4-[4-(cyclobutoxy)-6-methyl-pyrimidin-2-yl]-2,6-difluoro-phenyl]azetidin-3-yl]acetic acid] | 0.2 to 2
O=C(O)CC1CCN(c2c(F)cc(-c3cncc(OC4CCC4)n3)cc2F)CC1 [Example 329, 2-[1-[4-[6-(cyclobutoxy)pyrazin-2-yl]-2,6-difluoro-phenyl]-4-piperidyl]acetic acid] | < 0.2
O=C(O)CC1CCN(c2c(F)cc(-c3nccc(OC4CCC4)n3)cc2F)CC1 [Example 330, 2-[1-[4-[4-(cyclobutoxy)pyrimidin-2-yl]-2,6-difluoro-phenyl]-4-piperidyl]acetic acid] | < 0.2
O=C(O)CC1CN(c2c(F)cc(-c3cncc(OC4CCC4)n3)cc2F)C1 [Example 334, 2-[1-[4-[6-(cyclobutoxy)pyrazin-2-yl]-2,6-difluoro-phenyl]azetidin-3-yl]acetic acid] | < 0.2
CC(C)COc1cncc(-c2cc(F)c(N3CCC(CC(=O)O)CC3)c(F)c2)n1 [Example 342, 2-[1-[2,6-difluoro-4-(6-isobutoxypyrazin-2-yl)phenyl]-4-piperidyl]acetic acid] | < 0.2
CCCCOc1cncc(-c2cc(F)c(N3CCC(CC(=O)O)CC3)c(F)c2)n1 [Example 343, 2-[1-[4-(6-butoxypyrazin-2-yl)-2,6-difluoro-phenyl]-4-piperidyl]acetic acid] | < 0.2
O=C(O)CC1CCN(c2c(F)cc(-c3cncc(OC4CCCC4)n3)cc2F)CC1 [Example 344, 2-[1-[4-[6-(cyclopentoxy)pyrazin-2-yl]-2,6-difluoro-phenyl]-4-piperidyl]acetic acid] | < 0.2
CC(C)Oc1ccnc(-c2cc(F)c(N3CCC(CC(=O)O)CC3)c(F)c2)n1 [Example 346, 2-[1-[2,6-difluoro-4-(4-isopropoxypyrimidin-2-yl)phenyl]-4-piperidyl]acetic acid] | < 0.2
CC(C)COc1ccnc(-c2cc(F)c(N3CCC(CC(=O)O)CC3)c(F)c2)n1 [Example 348, 2-[1-[2,6-difluoro-4-(4-isobutoxypyrimidin-2-yl)phenyl]-4-piperidyl]acetic acid] | < 0.2
CCOc1cc(C)nc(-c2cc(F)c(N3CCC(CC(=O)O)CC3)c(F)c2)n1 [Example 349, 2-[1-[4-(4-ethoxy-6-methyl-pyrimidin-2-yl)-2,6-difluoro-phenyl]-4-piperidyl]acetic acid] | < 0.2
Cc1cc(OCC(C)C)nc(-c2cc(F)c(N3CCC(CC(=O)O)CC3)c(F)c2)n1 [Example 352, 2-[1-[2,6-difluoro-4-(4-isobutoxy-6-methyl-pyrimidin-2-yl)phenyl]-4-piperidyl]acetic acid] | 0.2 to 2

Now from value to molecule:

EC50 [µM] | Compound
< 0.2 | O=C(O)CC1CN(c2c(F)cc(-c3cccc(OCC4CC4)n3)cc2F)C1 [Example 322, 2-[1-[4-[6-(cyclopropylmethoxy)-2-pyridyl]-2,6-difluoro-phenyl]azetidin-3-yl]acetic acid]
0.2 to 2 | Cc1cc(OCC2CC2)nc(-c2cc(F)c(N3CCC(CC(=O)O)CC3)c(F)c2)n1 [Example 331, 2-[1-[4-[4-(cyclopropylmethoxy)-6-methyl-pyrimidin-2-yl]-2,6-difluoro-phenyl]-4-piperidyl]acetic acid]
< 0.2 | O=C(O)CC1CCN(c2c(F)cc(-c3nccc(OCC4CC4)n3)cc2F)CC1 [Example 332, 2-[1-[4-[4-(cyclopropylmethoxy)pyrimidin-2-yl]-2,6-difluoro-phenyl]-4-piperidyl]acetic acid]
< 0.2 | O=C(O)CC1CCN(c2c(F)cc(-c3cncc(OCC4CC4)n3)cc2F)CC1 [Example 333, 2-[1-[4-[6-(cyclopropylmethoxy)pyrazin-2-yl]-2,6-difluoro-phenyl]-4-piperidyl]acetic acid]
< 0.2 | O=C(O)CC1CN(c2c(F)cc(-c3cncc(OCC4CC4)n3)cc2F)C1 [Example 335, 2-[1-[4-[6-(cyclopropylmethoxy)pyrazin-2-yl]-2,6-difluoro-phenyl]azetidin-3-yl]acetic acid]
< 0.2 | O=C(O)CC1CN(c2c(F)cc(-c3nccc(OCC4CC4)n3)cc2F)C1 [Example 337, 2-[1-[4-[4-(cyclopropylmethoxy)pyrimidin-2-yl]-2,6-difluoro-phenyl]azetidin-3-yl]acetic acid]
< 0.2 | CCOc1cncc(-c2cc(F)c(N3CCC(CC(=O)O)CC3)c(F)c2)n1 [Example 338, 2-[1-[4-(6-ethoxypyrazin-2-yl)-2,6-difluoro-phenyl]-4-piperidyl]acetic acid]
< 0.2 | CC(C)Oc1cncc(-c2cc(F)c(N3CCC(CC(=O)O)CC3)c(F)c2)n1 [Example 339, 2-[1-[2,6-difluoro-4-(6-isopropoxypyrazin-2-yl)phenyl]-4-piperidyl]acetic acid]
0.2 to 2 | COc1cncc(-c2cc(F)c(N3CCC(CC(=O)O)CC3)c(F)c2)n1 [Example 340, 2-[1-[2,6-difluoro-4-(6-methoxypyrazin-2-yl)phenyl]-4-piperidyl]acetic acid]
< 0.2 | CCCOc1cncc(-c2cc(F)c(N3CCC(CC(=O)O)CC3)c(F)c2)n1 [Example 341, 2-[1-[2,6-difluoro-4-(6-propoxypyrazin-2-yl)phenyl]-4-piperidyl]acetic acid]
< 0.2 | CCOc1ccnc(-c2cc(F)c(N3CCC(CC(=O)O)CC3)c(F)c2)n1 [Example 345, 2-[1-[4-(4-ethoxypyrimidin-2-yl)-2,6-difluoro-phenyl]-4-piperidyl]acetic acid]
< 0.2 | CCCOc1ccnc(-c2cc(F)c(N3CCC(CC(=O)O)CC3)c(F)c2)n1 [Example 347, 2-[1-[2,6-difluoro-4-(4-propoxypyrimidin-2-yl)phenyl]-4-piperidyl]acetic acid]
0.2 to 2 | Cc1cc(OC(C)C)nc(-c2cc(F)c(N3CCC(CC(=O)O)CC3)c(F)c2)n1 [Example 350, 2-[1-[2,6-difluoro-4-(4-isopropoxy-6-methyl-pyrimidin-2-yl)phenyl]-4-piperidyl]acetic acid]
< 0.2 | CCCOc1cc(C)nc(-c2cc(F)c(N3CCC(CC(=O)O)CC3)c(F)c2)n1 [Example 351, 2-[1-[2,6-difluoro-4-(4-methyl-6-propoxy-pyrimidin-2-yl)phenyl]-4-piperidyl]acetic acid]
2 to 20 | O=C(O)CC1CCN(c2c(F)cc(-c3cncc(N4CCCC4)n3)cc2F)CC1 [Example 353, 2-[1-[2,6-difluoro-4-(6-pyrrolidin-1-ylpyrazin-2-yl)phenyl]-4-piperidyl]acetic acid]
0.2 to 2 | CC(C)Nc1cncc(-c2cc(F)c(N3CCC(CC(=O)O)CC3)c(F)c2)n1 [Example 354, 2-[1-[2,6-difluoro-4-[6-(isopropylamino)pyrazin-2-yl]phenyl]-4-piperidyl]acetic acid]
2 to 20 | CCN(CC)c1cncc(-c2cc(F)c(N3CCC(CC(=O)O)CC3)c(F)c2)n1 [Example 355, 2-[1-[4-[6-(diethylamino)pyrazin-2-yl]-2,6-difluoro-phenyl]-4-piperidyl]acetic acid]
0.2 to 2 | CC(C)CNc1cncc(-c2cc(F)c(N3CCC(CC(=O)O)CC3)c(F)c2)n1 [Example 356, 2-[1-[2,6-difluoro-4-[6-(isobutylamino)pyrazin-2-yl]phenyl]-4-piperidyl]acetic acid]
0.2 to 2 | O=C(O)CC1CCN(c2c(F)cc(-c3cncc(NC4CCCC4)n3)cc2F)CC1 [Example 357, 2-[1-[4-[6-(cyclopentylamino)pyrazin-2-yl]-2,6-difluoro-phenyl]-4-piperidyl]acetic acid]
0.2 to 2 | O=C(O)CC1CCN(c2c(F)cc(-c3cccc(NC4CCCC4)n3)cc2F)CC1 [Example 358, 2-[1-[4-[6-(cyclopentylamino)-2-pyridyl]-2,6-difluoro-phenyl]-4-piperidyl]acetic acid]
